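Cultured in 96-well plates, cells were exposed to test compound for 48 hours across five concentrations. Here, GI50 denotes the concentration required for 50% inhibition of growth. TGI is the concentration that stops growth completely.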
What was measured:
Test in all cases: NCI tumour cell line growth inhibition, 48 h
EKVX NSCLC = tested on: EKVX NSCLC
OVCAR-5 ovarian = tested on: OVCAR-5 ovarian
MALME-3M melanoma = tested on: MALME-3M melanoma
LOX IMVI melanoma = tested on: LOX IMVI melanoma
HT29 colon = tested on: HT29 colon
OVCAR-8 ovarian = tested on: OVCAR-8 ovarian
UACC-257 melanoma = tested on: UACC-257 melanoma
IGROV1 ovarian = tested on: IGROV1 ovarian
HOP-62 NSCLC = tested on: HOP-62 NSCLC
BT-549 breast = tested on: BT-549 breast

SMILES	TGI (EKVX NSCLC) [µM]	TGI (OVCAR-5 ovarian) [µM]	TGI (MALME-3M melanoma) [µM]	TGI (LOX IMVI melanoma) [µM]	TGI (HT29 colon) [µM]	TGI (OVCAR-8 ovarian) [µM]	TGI (UACC-257 melanoma) [µM]	TGI (IGROV1 ovarian) [µM]	TGI (HOP-62 NSCLC) [µM]	GI50 (OVCAR-5 ovarian) [µM]	GI50 (LOX IMVI melanoma) [µM]	GI50 (HT29 colon) [µM]	GI50 (OVCAR-8 ovarian) [µM]	GI50 (BT-549 breast) [µM]	TGI (BT-549 breast) [µM]	GI50 (UACC-257 melanoma) [µM]	GI50 (IGROV1 ovarian) [µM]	GI50 (HOP-62 NSCLC) [µM]	GI50 (EKVX NSCLC) [µM]	GI50 (MALME-3M melanoma) [µM]
CCOC(=O)c1cc(/C=C/C(C)=C/C(=O)OC)oc1C	> 100	> 100	> 100	> 100	> 100	> 100	> 100	> 100	> 100	–	–	–	–	–	–	–	–	–	–	–
CC(=O)NC(CCCCNC(=O)NCCCl)C(=O)NCc1ccccc1 (configuration not stated)	> 100	–	> 100	–	> 100	> 100	> 100	–	> 100	–	–	–	–	–	–	–	–	–	–	–
C/C(CCc1ccccc1)=N\NC(N)=S	> 100	> 100	> 100	> 100	> 100	> 100	> 100	> 100	> 100	–	–	–	–	–	–	–	–	–	–	–
NCCCCNc1ccc2c(=O)[nH][nH]c(=O)c2c1	> 100	> 100	> 100	> 100	> 100	> 100	> 100	> 100	> 100	–	–	–	–	–	–	–	–	–	–	–
C[C@]12CCCC(=O)C1(O)C[C@H](C(=O)O)CC2 (some centres not stated)	–	> 100	> 100	> 100	> 100	> 100	> 100	> 100	> 100	–	–	–	–	–	–	–	–	–	–	–
COC(=O)C(CC(=O)Nc1ccc(C)cc1)C(=O)C(=O)Nc1ccccc1C(C)C (configuration not stated)	> 100	> 100	> 100	> 100	> 100	> 100	> 100	> 100	> 100	–	–	–	–	–	–	–	–	–	–	–
Cc1nc2sccn2c1-c1csc(Nc2cccc(Cl)c2C)n1	–	> 100	–	20.6	14.7	47.1	12.5	73.2	> 100	24	6.5	3.29	5.84	3.44	20.5	2.52	8.83	10.3	–	–
COC(=O)C(=O)C(C(=O)C(=O)Nc1cccc(C(C)=O)c1)c1nc2ccccc2[nH]c1=O (configuration not stated)	> 100	> 100	> 100	> 100	> 100	–	> 100	> 100	–	–	–	–	–	–	–	–	–	–	–	–
Cc1cc(C)c(C(=O)c2no[n+]([O-])c2C(=O)c2c(C)cc(C)c(Br)c2C)c(C)c1Br	24.4	33	29.9	–	27.4	27.1	–	23.3	33.4	–	–	–	–	–	–	–	–	–	–	–
CN(C)CC1CCC/C1=N\O (configuration not stated)	–	> 100	–	> 100	> 100	> 100	> 100	> 100	> 100	–	–	–	–	–	–	–	–	–	–	–
CC(=O)OCC(OC(C)=O)C(OC(C)=O)C(OC(C)=O)C(=O)CNn1c(-c2ccccc2Cl)nc2ccccc2c1=O (configuration not stated)	> 100	> 100	> 100	> 100	> 100	> 100	> 100	–	> 100	–	–	–	–	–	–	–	–	–	–	–
CCOC(=O)/C=C1\CCCC12OCCO2	–	–	> 100	–	–	> 100	> 100	> 100	> 100	–	–	–	–	–	–	–	–	–	–	–
COC(=O)c1nc(Cl)nc(Cl)c1Cl	–	52.3	45.9	29.6	50.2	54.5	–	66	> 100	–	–	–	–	–	–	–	–	–	–	–
CC[O-].CC[O-].O=S(=O)([O-])c1ccc([O-])c2ncccc12.O=S(=O)([O-])c1ccc([O-])c2ncccc12.[Ti+4]	> 100	> 100	> 100	> 100	> 100	> 100	> 100	> 100	> 100	33.5	28.3	52.8	74.5	–	–	43.7	> 100	44	> 100	> 100
Nc1ccccc1C#C/C=C\C#Cc1ccccc1	41.1	51.6	–	24.1	44.8	> 100	> 100	–	33.6	15.5	10.3	21.1	48	3.29	16.3	27.7	–	15	15.3	–
CCOP(=O)(OCC)OC(C#N)c1ccc(-c2ccccc2)cc1 (configuration not stated)	> 100	> 100	41	29.1	34.3	37.4	36.8	> 100	> 100	–	–	–	–	–	–	–	–	–	–	–
C/C(=N\N(c1ccccc1)c1ccccc1)c1c(O)cc(C)oc1=O	> 100	–	> 100	> 100	> 100	> 100	> 100	–	> 100	–	–	–	–	–	–	–	–	–	–	–
COC(=O)[C@]12CCC(C)[C@H](C)[C@H]1C1=CCC3[C@@]4(C)CC[C@H](OC(C)=O)C(C)(C)C4CC[C@@]3(C)C1(C)C(O)C2 (some centres not stated)	> 100	> 100	> 100	> 100	> 100	> 100	> 100	> 100	> 100	–	–	–	–	–	–	–	–	–	–	–
COC(=O)c1ccccc1NC(=O)C(=O)NNC(=O)c1ccncc1	> 100	–	> 100	> 100	> 100	> 100	> 100	> 100	> 100	–	–	–	–	–	–	–	–	–	–	–
O=c1cccc(C2CC(CO)C3CCCCN3C2)[nH]1 (configuration not stated)	> 100	> 100	–	> 100	> 100	> 100	> 100	> 100	–	–	–	–	–	–	> 100	–	–	–	–	–
CCOc1cccc(/C=N/NC(=O)C(=O)Nc2cccc(C(F)(F)F)c2)c1O	–	> 100	64.2	22.2	> 100	> 100	25	25.8	53.6	5.67	1.44	6.51	1.29	5.36	> 100	2.57	1.3	3.1	–	4.35
Cc1c(C(=O)NCCN2CCOCC2)cn2ncnc(Oc3ccc(NC(=O)Nc4ccc(Cl)c(C(F)(F)F)c4)cc3)c12	–	–	2.76	1.94	> 100	> 100	–	–	3.92	–	0.601	1.57	3.1	1.66	3.21	–	–	1.99	–	1.09
